This is an account of results in patent US20150157739A1, “Imidazo[2,1]thiazol-3-one derivatives” (Hoffmann-La Roche Inc., priority 2012, published 2015).

Each structure is given as a SMILES string.

In experiment [1] the target is T1, aggregated recombinant human-microtubule associated protein Tau (Homo sapiens, UniProt P10636).
T1 construct: Recombinant human-microtubule associated protein Tau purified from E. coli is aggregated at a concentration of 5 μM with Arachidonic Acid (100 μM) in Tris 10 mM pH8, 24 h at 37° C
The experiment in a line: Thiazin-red R displacement fluorescence assay on aggregated Tau. It is filed as binding. As to conditions: displacement of Thiazin-red R from aggregated Tau; compound 0.3 nM to 10000 nM; 30 min room temperature; Ex 531 nm/Em 595 nm.

The target of experiment [2] is T2, aggregated synthetic Aβ40 (Homo sapiens, UniProt P05067).
T2 construct: Synthetic Aβ40 is aggregated at a concentration of 50 μM
The experiment in a line: Thiazin-red R displacement fluorescence assay on aggregated A-beta. It is filed as binding. The following applies: displacement of Thiazin-red R from aggregated Aβ40; compound 0.3 nM to 10000 nM; 30 min room temperature; Ex 531 nm/Em 595 nm.

T1 sequence (P10636 whole entry): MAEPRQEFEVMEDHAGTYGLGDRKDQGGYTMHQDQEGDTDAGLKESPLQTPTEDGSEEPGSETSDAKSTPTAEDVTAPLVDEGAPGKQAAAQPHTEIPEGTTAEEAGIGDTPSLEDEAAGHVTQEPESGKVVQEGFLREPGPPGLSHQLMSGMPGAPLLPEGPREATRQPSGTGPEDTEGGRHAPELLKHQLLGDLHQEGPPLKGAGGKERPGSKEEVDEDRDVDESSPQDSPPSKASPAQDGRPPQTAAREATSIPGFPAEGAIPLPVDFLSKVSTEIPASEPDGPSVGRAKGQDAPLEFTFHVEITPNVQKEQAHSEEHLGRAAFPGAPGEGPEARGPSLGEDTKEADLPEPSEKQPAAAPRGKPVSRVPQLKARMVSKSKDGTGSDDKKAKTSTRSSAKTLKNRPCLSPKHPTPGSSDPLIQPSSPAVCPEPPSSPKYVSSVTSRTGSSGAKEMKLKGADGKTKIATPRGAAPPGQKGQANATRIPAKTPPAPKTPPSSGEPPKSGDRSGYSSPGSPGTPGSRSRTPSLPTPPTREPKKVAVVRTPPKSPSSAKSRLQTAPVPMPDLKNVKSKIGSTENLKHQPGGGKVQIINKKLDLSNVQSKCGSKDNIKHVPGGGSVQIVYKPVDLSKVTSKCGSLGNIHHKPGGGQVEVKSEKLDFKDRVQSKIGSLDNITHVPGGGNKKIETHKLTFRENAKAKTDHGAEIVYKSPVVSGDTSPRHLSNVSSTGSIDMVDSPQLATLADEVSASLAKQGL
T2 sequence (P05067 672-711 limits assumed): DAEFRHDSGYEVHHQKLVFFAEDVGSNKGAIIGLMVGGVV

On to `COc1ccc(-c2nc3s/c(=C\c4cc(Cl)c(O)c(OC)c4)c(=O)n3c2C)cc1` [Example 14, 2-[1-(3-Chloro-4-hydroxy-5-methoxy-phenyl)-meth-(Z)-ylidene]-6-(4-methoxy-phenyl)-5-methyl-imidazo[2,1-b]thiazol-3-one], for which the IC50 is 37 nM in experiment [1] and 466 nM in experiment [2].

As for `CCCOc1cc(/C=c2\sc3nc(-c4cccc(OC(F)(F)F)c4)cn3c2=O)cc(OC)c1O` [Example 33, 2-[1-(4-Hydroxy-3-methoxy-5-propoxy-phenyl)-meth-(Z)-ylidene]-6-(3-trifluoromethoxy-phenyl)-imidazo[2,1-b]thiazol-3-one], the IC50 was found to be 25 nM in experiment [1] and 256 nM in experiment [2].

In the case of `COc1cc(/C=c2\sc3nc(-c4cccc(F)c4)cn3c2=O)cc(Cl)c1O` [Example 57, 2-[1-(3-Chloro-4-hydroxy-5-methoxy-phenyl)-meth-(Z)-ylidene]-6-(3-fluoro-phenyl)-imidazo[2,1-b]thiazol-3-one], the IC50 in experiment [1] was 6 nM; in experiment [2], 3320 nM.

Take `COc1cc(/C=c2\sc3nc(-c4ccc(Cl)cc4)cn3c2=O)cc(F)c1O` [Example 4, 6-(4-Chloro-phenyl)-2-[1-(3-fluoro-4-hydroxy-5-methoxy-phenyl)-meth-(Z)-ylidene]-imidazo[2,1-b]thiazol-3-one]: the figures for the IC50 in experiment [1] and in experiment [2] were 11 nM and 393 nM, respectively.

In the case of `COc1cc(/C=c2\sc3nc(-c4cccc(OCCOCCOCCF)c4)cn3c2=O)cc(Cl)c1O` [Example 95, 2-[1-(3-Chloro-4-hydroxy-5-methoxy-phenyl)-meth-(Z)-ylidene]-6-(3-{2-[2-(2-fluoro-ethoxy)-ethoxy]-ethoxy}-phenyl)-imidazo[2,1-b]thiazol-3-one], the IC50 worked out at 28 nM in experiment [1] and 2150 nM in experiment [2].

With `COc1cc(/C=c2\sc3nc(-c4ccccc4C)cn3c2=O)ccc1O` [Example 11, 2-[1-(4-hydroxy-3-methoxy-phenyl)-meth-(Z)-ylidene]-6-o-tolyl-imidazo[2,1-b]thiazol-3-one], the IC50 in experiment [1] turned out to be 837 nM; in experiment [2], 1280 nM.

In the case of `COc1cc(/C=c2\sc3nc(-c4ccc(C(=O)NCCCF)cc4)cn3c2=O)cc(Cl)c1O` [Example 117, 4-{2-[1-(3-Chloro-4-hydroxy-5-methoxy-phenyl)-meth-(Z)-ylidene]-3-oxo-2,3-dihydro-imidazo[2,1-b]thiazol-6-yl}-N-(3-fluoro-propyl)-benzamide], the IC50 in experiment [1] worked out at 5 nM; in experiment [2], 643 nM.

As to `COc1cc(/C=c2\sc3nc(-c4cccnc4)cn3c2=O)cc(Br)c1O` [Example 72, 2-[1-(3-Bromo-4-hydroxy-5-methoxy-phenyl)-meth-(Z)-ylidene]-6-(pyridin-3-yl)-imidazo[2,1-b]thiazol-3-one], the IC50 is 3 nM in experiment [1] and 229 nM in experiment [2].

Take `COc1cc(/C=c2\sc3nc(-c4ccc(N5CCOCC5)cc4)cn3c2=O)cc(Cl)c1O` [Example 92, 2-[1-(3-Chloro-4-hydroxy-5-methoxy-phenyl)-meth-(Z)-ylidene]-6-(4-morpholinophenyl)-imidazo[2,1-b]thiazol-3-one]: the IC50 in experiment [1] amounted to 39 nM; in experiment [2] it was 482 nM.

Regarding `COc1cc(/C=c2\sc3nc(-c4ccc(C(=O)N5CC(F)C5)cc4)cn3c2=O)cc(Cl)c1O` [Example 134, 2-[1-(3-Chloro-4-hydroxy-5-methoxy-phenyl)-meth-(Z)-ylidene]-6-[4-(3-fluoro-azetidine-1-carbonyl)-phenyl]-imidazo[2,1-b]thiazol-3-one], the values for the IC50 in experiment [1] and in experiment [2] were 2 nM and 133 nM, respectively.

As to `CCCOc1cc(/C=c2\sc3nc(-c4cnccc4C)cn3c2=O)cc(Cl)c1O` [Example 109, 2-[1-(3-Chloro-4-hydroxy-5-propoxy-phenyl)-meth-(Z)-ylidene]-6-(4-methyl-pyridin-3-yl)-imidazo[2,1-b]thiazol-3-one], the IC50 came to 33 nM in experiment [1] and 4920 nM in experiment [2].

As to `CCCOc1cc(/C=c2\sc3nc(-c4ccccn4)cn3c2=O)cc(Cl)c1O` [Example 136, 2-[1-(3-Chloro-4-hydroxy-5-propoxy-phenyl)-meth-(Z)-ylidene]-6-pyridin-2-yl-imidazo[2,1-b]thiazol-3-one], the results for the IC50 in experiment [1] and in experiment [2] were 30 nM and 293 nM, respectively.

For the molecule `COc1cc(/C=c2\sc3nc(-c4cccc(OCCF)c4)cn3c2=O)cc(Cl)c1O` [Example 74, 2-[1-(3-Chloro-4-hydroxy-5-methoxy-phenyl)-meth-(Z)-ylidene]-6-(3-(2-fluoroethoxyl)phenyl)-imidazo[2,1-b]thiazol-3-one], the IC50 was 5 nM in experiment [1] and 55 nM in experiment [2].
